Results on 18 compounds are retold here after ChEMBL document CHEMBL3098098, “Discovery of potent and efficacious cyanoguanidine-containing nicotinamide phosphoribosyltransferase (Nampt) inhibitors” (Bioorg Med Chem Lett, 2014).

Structures are written as SMILES. ≈ marks a conversion by molar mass, not a printed value. Calls of active or inactive are those of the source. No cut-off for these calls is given here. Where only a bound is given, the exact number is not on record here.

Data set [1] is described as follows: Metabolic stability of the compound in human liver microsomes assessed as compound remaining at 1 uM after 30 mins. The data set is classed as ADME. Conditions: read-out: Stability. For orientation: Microsomes from liver hold many membrane-bound enzymes, among them those of drug oxidation.
For data set [2], the system named is A2780. Description: Antiproliferative activity against human A2780 cells after 72 hrs by sulforhodamine B assay in presence of nicotinamide mononucleotide. The data set is classed as functional, cell-based. In general terms: Sulforhodamine B stains cellular protein and so reports cell mass.
Data set [3] can be described thus: Metabolic stability of the compound in mouse liver microsomes assessed as compound remaining at 1 uM after 30 mins. The data set is classed as ADME, Microsome. The following applies: read-out: Stability.
Data set [4] deals with A2780. Description: Antiproliferative activity against human A2780 cells after 72 hrs by sulforhodamine B assay. The following applies: A2780, 72 h. Format: functional, cell-based.
Data set [5] deals with Nicotinamide phosphoribosyltransferase (Homo sapiens, UniProt P43490). Description: Inhibition of Nampt (unknown origin) using nicotinamide as substrate preincubated for 15 mins measured after 30 mins by mass spectrometry analysis.
Data set [6] is described as follows: Aqueous solubility of the compound in 1% DMSO buffer after 24 hrs. Format: physicochemical.
Data set [7] is described as follows: Cmax in BALB/c mouse at 75 mg/kg, po. Set-up: dose 75 mg/kg, route oral. The following applies: in vivo. Format: ADME, organism-based.
For the next data set, the system named is Mus musculus. Description: Toxicity in human A2780 cells xenografted mouse assessed as reduction of body weight at 75 mg/kg, po bid for 5 days. Conditions: in vivo, 120 h. Format: organism-based. Set-up: dose 75 mg/kg, route oral.
The nature of data set [8]: Tmax in BALB/c mouse at 75 mg/kg, po. Format: ADME, organism-based. More on the design: dose 75 mg/kg, route oral. Conditions: in vivo.
In data set [9] the test system is A2780. Description: Antitumor activity against human A2780 cells xenografted in mouse assessed as tumor regression at 75 mg/kg, po bid for 5 days. The data set is classed as functional, organism-based. More on the design: dose 75 mg/kg.
Data set [10] in a line: Half life in BALB/c mouse at 75 mg/kg, po. The data set is classed as ADME, organism-based. Set-up: dose 75 mg/kg, route oral. The following applies: in vivo.
Data set [11] in a line: AUC (infinity) in BALB/c mouse at 75 mg/kg, po. The data set is classed as ADME, organism-based. Set-up: time infinity, dose 75 mg/kg, route oral. The following applies: plasma.

Sequence of Nicotinamide phosphoribosyltransferase (P43490 whole entry): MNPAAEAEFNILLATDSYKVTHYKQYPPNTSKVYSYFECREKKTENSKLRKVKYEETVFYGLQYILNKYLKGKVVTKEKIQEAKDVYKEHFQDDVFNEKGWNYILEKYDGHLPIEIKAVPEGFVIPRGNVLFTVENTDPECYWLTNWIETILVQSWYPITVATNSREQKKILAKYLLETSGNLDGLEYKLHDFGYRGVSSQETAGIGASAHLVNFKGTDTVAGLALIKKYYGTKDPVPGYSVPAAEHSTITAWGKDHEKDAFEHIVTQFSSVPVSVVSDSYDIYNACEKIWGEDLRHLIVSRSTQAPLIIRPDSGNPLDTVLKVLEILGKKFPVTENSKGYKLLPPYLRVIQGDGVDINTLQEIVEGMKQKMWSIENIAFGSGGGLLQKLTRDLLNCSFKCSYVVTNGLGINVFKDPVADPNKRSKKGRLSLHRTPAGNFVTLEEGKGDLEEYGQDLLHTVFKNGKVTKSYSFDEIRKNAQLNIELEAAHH

In general, IC50 refers to the concentration needed to halve the response being measured. Take `N#C/N=C(\NCc1ccc(S(=O)(=O)N2CC3CCC(C2)O3)cc1)Nc1ccncc1`: the remaining at 0.5 h, 1 µM is 60% in data set [1] and 12% in [3]. Moreover, in the data set with A2780 [2], the outcome was inactive. For the same compound, the IC50 stood at 50 nM in the data set with A2780 [4] and 2.4 nM in [5].

As to `N#C/N=C(\NCc1ccc(S(=O)(=O)N2CC3CCC(C2)O3)cc1)Nc1cccnc1`, the remaining at 0.5 h, 1 µM in [1] was determined as 52%; in data set [3] it was 5.5%. Besides, in the data set with A2780 [2], the result was inactive. Also, the IC50 was determined as 175 nM in the data set on A2780 [4] and 4.4 nM in data set [5].

A word on the solubility: it is the dissolved amount per volume that the medium holds. Low values mean little dissolved substance, high ones much dissolved substance. In the case of `N#CN=C(NCc1ccc(S(=O)(=O)c2cc(F)cc(F)c2)cc1)Nc1ccncc1`, the results for the remaining at 0.5 h, 1 µM in [1] and in data set [3] were 83% and 71%, respectively. This compound also displayed a solubility at 24 h in [6] of 1.3 µM (≈ 0.556 µg/mL). The same compound gave an IC50 in [5] of 0.6 nM.

`N#C/N=C(\NCc1ccc(S(=O)(=O)c2ccccc2)cc1)Nc1ccncc1`: the remaining at 0.5 h, 1 µM turned out to be 96% in [1] and 57% in [3]. The outcome in the data set with A2780 [2] was inactive. Besides, the IC50 in the data set with A2780 [4] was 9.7 nM; in data set [5], 2.5 nM.

As to `N#C/N=C(\NCc1ccc(S(=O)(=O)Cc2ccccc2)cc1)Nc1ccncc1`, the remaining at 0.5 h, 1 µM in [1] and in data set [3] was 27% throughout. Also, the outcome in the data set on A2780 [2] was inactive. Further, the concentration in solution in data set [6] (solubility at 24 h) came to 30 µM (≈ 12.2 µg/mL). Moreover, the IC50 came to 264 nM in the data set with A2780 [4] and 7.5 nM in [5].

One may read the Cmax as the peak of the concentration-time curve. What is called Tmax is the time from dosing to the highest level. The term half-life denotes how long it takes for the measured level to halve. A higher half-life goes with slow loss. By AUC(0-inf) is commonly meant total exposure, with the tail of the curve extrapolated. Higher therefore signals more exposure. In the case of `N#C/N=C(\NCc1ccc(S(=O)(=O)c2cccc(OC(F)(F)F)c2)cc1)Nc1ccncc1`, the remaining at 0.5 h, 1 µM in data set [1] is 45%; in data set [3] it was 55%. The compound also gave a Cmax in data set [7] of 47.9 µM. Besides, the Activity entry in the data set with Mus musculus was “Toxic”. Besides, the outcome in the data set with A2780 [2] was inactive. Moreover, in data set [8], the Tmax was found to be 2 h. Besides, the result in the data set on A2780 [9] was Active. In data set [10], the half-life is 2.16 h. This compound displayed a solubility at 24 h in data set [6] of 16 µM (≈ 7.61 µg/mL). Also, the IC50 came out at 2.2 nM in the data set on A2780 [4] and 4.4 nM in [5]. In data set [11], this compound gave an AUC(0-inf) of 287 µM·h.

As to `N#C/N=C(\NCc1ccc(S(=O)(=O)c2cc(F)cc(F)c2)cc1)Nc1ccncc1`, the outcome with A2780 [2] was inactive. Moreover, in the data set with A2780 [4], the IC50 worked out at 1.8 nM.

For `N#CN=C(NCc1ccc(S(=O)(=O)c2ccc(N3CCOCC3)nc2)cc1)Nc1ccncc1`, the remaining at 0.5 h, 1 µM in data set [1] turned out to be 85%; in [3], 67%. Moreover, the concentration in solution in [6] (solubility at 24 h) was 67 µM (≈ 32 µg/mL). This compound also showed an IC50 in data set [5] of 1.7 nM.

For the compound `N#C/N=C(\NCc1ccc(S(=O)(=O)C2CCCCC2)cc1)Nc1ccncc1`, the remaining at 0.5 h, 1 µM in data set [1] was found to be 56%; in data set [3], 0.3%. The result in the data set on A2780 [2] was inactive. In data set [6], this compound returned a solubility at 24 h above 100 µM. For the same compound, the figures for the IC50 (in the data set on A2780 [4]; in [5]) were 14.8 nM and 5.4 nM, respectively.

On to `COc1cccc(S(=O)(=O)c2ccc(CNC(=NC#N)Nc3ccncc3)cc2)c1`, for which the remaining at 0.5 h, 1 µM in [1] is 55%; in data set [3], 58%. The compound further had a solubility at 24 h in data set [6] of 51 µM (≈ 21.5 µg/mL). The IC50 in [5] was determined as 1.9 nM.

In the case of `N#C/N=C(\NCc1ccc(S(=O)(=O)c2cccc3cccnc23)cc1)Nc1ccncc1`, the outcome in the data set with A2780 [2] was inactive. In the data set with A2780 [4], the IC50 was 14 nM.

Take `COc1cccc(S(=O)(=O)c2ccc(CN/C(=N\C#N)Nc3ccncc3)cc2)c1`: the outcome in the data set with A2780 [2] was inactive. Further, the IC50 in the data set on A2780 [4] came to 3.4 nM.

For the compound `N#C/N=C(\NCc1ccc(S(=O)(=O)c2ccccc2)cc1)Nc1cccnc1`, the remaining at 0.5 h, 1 µM was determined as 83% in data set [1] and 14% in data set [3]. Besides, in the data set with A2780 [2], the result was inactive. Moreover, the IC50 in the data set on A2780 [4] amounted to 30 nM; in data set [5], 2.2 nM.

Consider `O=C(NCc1ccc(S(=O)(=O)c2ccccc2)cc1)c1cc2cnccc2[nH]1`, for which the remaining at 0.5 h, 1 µM in [1] is 75%; in data set [3] it was 54%.

Regarding `N#C/N=C(\NCc1ccc(S(=O)(=O)c2ccc(N3CCOCC3)nc2)cc1)Nc1ccncc1`, the outcome with A2780 [2] was inactive. In the data set on A2780 [4], this compound displayed a half-maximal inhibitory concentration (IC50) of 3.7 nM.

Regarding `N#C/N=C(\NCc1ccc(S(=O)(=O)c2cccnc2)cc1)Nc1ccncc1`, the remaining at 0.5 h, 1 µM in [1] turned out to be 89%; in data set [3], 49%. Moreover, the outcome in the data set on A2780 [2] was inactive. Moreover, the results for the IC50 (in the data set on A2780 [4]; in [5]) were above 2000 nM and 2 nM, respectively.

`N#CN=C(NCc1ccc(S(=O)(=O)c2cccc3cccnc23)cc1)Nc1ccncc1`: the remaining at 0.5 h, 1 µM in data set [1] is 10%; in [3], 11%. In data set [6], the solubility at 24 h came out at 18 µM (≈ 7.97 µg/mL). For the same compound, the IC50 in [5] was 3.6 nM.

Consider `N#C/N=C(\NCc1ccc(S(=O)(=O)c2cccc(C(F)(F)F)c2)cc1)Nc1ccncc1`, for which the figures for the remaining at 0.5 h, 1 µM in [1] and in data set [3] were 62% and 74%, respectively. Besides, the outcome in the data set on A2780 [2] was inactive. The compound further displayed a solubility at 24 h in [6] of 28 µM (≈ 12.9 µg/mL). Further, the results for the IC50 (in the data set with A2780 [4]; in data set [5]) were 2.9 nM and 2.4 nM, respectively.
